Values quoted from earlier work as cited in patent US9085793B2, “Ex vivo methods to identify circulating drug metabolites with drug interaction potential” (XPD Consulting, LLC, priority 2012, dated 2015).
Read-outs that look alike come from different tables or passages of the source.

Legend:
CYP2D6 [1] = target: T1, CYP2D6 (Homo sapiens, UniProt P10635); conditions: CYP 2D6; for IPM/IPP: in vivo inhibitory potential of metabolite over that of parent drug; for Ki: read-out: Ki Metabolite, metabolite
T1 sequence (P10635 whole entry): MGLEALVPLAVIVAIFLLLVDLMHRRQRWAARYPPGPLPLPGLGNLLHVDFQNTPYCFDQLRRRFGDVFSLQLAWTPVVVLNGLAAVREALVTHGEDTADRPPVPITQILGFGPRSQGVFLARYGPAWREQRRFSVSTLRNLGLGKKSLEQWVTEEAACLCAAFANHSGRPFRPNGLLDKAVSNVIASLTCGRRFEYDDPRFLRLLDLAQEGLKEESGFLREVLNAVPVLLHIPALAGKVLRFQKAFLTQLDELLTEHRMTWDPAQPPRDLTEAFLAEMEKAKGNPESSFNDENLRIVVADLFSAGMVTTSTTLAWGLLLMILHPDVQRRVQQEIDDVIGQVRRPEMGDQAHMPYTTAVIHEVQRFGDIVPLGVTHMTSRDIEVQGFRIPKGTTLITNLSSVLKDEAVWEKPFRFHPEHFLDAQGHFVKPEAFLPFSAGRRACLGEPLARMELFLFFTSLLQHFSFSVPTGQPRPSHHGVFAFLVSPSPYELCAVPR

CYP2D6 [2] = target: T1, CYP2D6; conditions: human hepatocytes
[3] = in vivo
CYP3A4 = CYP3A4 (Homo sapiens, UniProt P08684); conditions: human hepatocytes
Sequence of CYP3A4 (P08684 whole entry): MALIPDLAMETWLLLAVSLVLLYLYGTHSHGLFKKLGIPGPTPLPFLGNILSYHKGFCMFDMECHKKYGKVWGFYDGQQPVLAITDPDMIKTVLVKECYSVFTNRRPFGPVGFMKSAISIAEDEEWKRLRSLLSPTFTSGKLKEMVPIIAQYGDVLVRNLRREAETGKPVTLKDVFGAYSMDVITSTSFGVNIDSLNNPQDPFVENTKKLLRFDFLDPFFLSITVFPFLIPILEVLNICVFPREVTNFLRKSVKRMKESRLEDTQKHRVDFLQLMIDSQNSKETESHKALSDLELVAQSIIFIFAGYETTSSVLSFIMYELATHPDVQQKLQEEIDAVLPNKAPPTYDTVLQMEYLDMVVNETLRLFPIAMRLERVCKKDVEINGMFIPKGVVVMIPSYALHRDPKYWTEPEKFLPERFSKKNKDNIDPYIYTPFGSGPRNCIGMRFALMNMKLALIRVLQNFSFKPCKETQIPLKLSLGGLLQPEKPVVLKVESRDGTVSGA

CYP2C9 [4] = target: T2, CYP2C9 (Homo sapiens, UniProt P11712)
T2 sequence (P11712 whole entry): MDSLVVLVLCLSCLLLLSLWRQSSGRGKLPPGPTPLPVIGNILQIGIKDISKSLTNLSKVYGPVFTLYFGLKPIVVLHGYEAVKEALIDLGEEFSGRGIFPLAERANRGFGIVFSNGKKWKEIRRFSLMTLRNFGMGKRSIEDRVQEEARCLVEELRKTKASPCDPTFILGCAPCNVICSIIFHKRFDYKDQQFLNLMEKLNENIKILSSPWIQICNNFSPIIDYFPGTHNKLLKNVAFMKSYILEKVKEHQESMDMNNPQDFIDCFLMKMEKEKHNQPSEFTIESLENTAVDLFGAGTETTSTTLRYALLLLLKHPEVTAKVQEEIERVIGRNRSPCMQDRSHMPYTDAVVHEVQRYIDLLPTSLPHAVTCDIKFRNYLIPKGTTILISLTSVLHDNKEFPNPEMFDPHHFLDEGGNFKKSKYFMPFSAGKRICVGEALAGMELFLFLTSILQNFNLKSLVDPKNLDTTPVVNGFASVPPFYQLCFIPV

CYP2C9 [5] = target: T2, CYP2C9; conditions: read-out: Ki Metabolite, CYP 2C9
CYP2D6 [6] = target: T1, CYP2D6; conditions: human liver microsomes
CYP3A [7] = conditions: CYP 3A; in vivo inhibitory potential of metabolite over that of parent drug
CYP3A [8] = test system: T3, CYP3A; conditions: CYP 3A; metabolite
T3 construct: rows headed: Ki Parent Drug (P); other: CYP 3A; parent drug; Ki Metabolite (M); metabolite; [I]/Ki Parent Drug (P); [I]/Ki Metabolite (M)

CYP2C9 [9] = target: T2, CYP2C9; remark: listed apart in the source
[10] = circulating plasma level (in vivo concentration) of metabolite

| SMILES | [I] Metabolite (M) [10] | IPM/IPP (CYP2D6 [1]) | Ki (CYP2D6 [1]) | other results |
| --- | --- | --- | --- | --- |
| CC(NC(C)(C)C)C(O)c1cccc(Cl)c1 (centres unmarked) [Erythrobupropion] | 3.7e-07 M | 15.3 | 1.7 µM |  |
| CNCC(c1ccc(OC)cc1)C1(O)CCCCC1 (centres unmarked) [N-Desmethylvenlafaxine] |  |  |  | [I] Metabolite (M) (in vivo): 9.3e-07 M |
| CNCCCN1c2ccccc2CCc2ccc(Cl)cc21 [N-Desmethylclomipramine] |  | 4.2 | 7.9 µM | [I] Metabolite (M) (in vivo): 4.9e-07 M |
| CN[C@H]1CC[C@@H](c2ccc(Cl)c(Cl)c2)c2ccccc21 [Sertraline] |  |  |  | IC50 (CYP2D6 [2]; human plasma, read-out: IC50 Plasma): 13.1 ± 3.49 µM; IC50 (CYP2D6 [2]; medium, read-out: IC50 Medium): 3.1 ± 0.34 µM |
| C[C@H]1NC(C)(C)CO[C@]1(O)c1cccc(Cl)c1 [Hydroxybupropion] | 3.2e-06 M | 17.0 | 13 µM |  |
| CNCCC(Oc1ccc(C(F)(F)F)cc1)c1ccccc1 (centres unmarked) [Fluoxetine] |  |  |  | Plasma half-life [3]: 96 to 140 h |
| Cc1ncc2n1-c1ccc(Cl)cc1C(c1ccccc1F)=NC2 [Midazolam] |  |  |  | Increase in Km (CYP3A4; plasma versus medium): 5.7 fold; Km (CYP3A4; read-out: Km Medium, cell culture medium (HMM)): 8.11 ± 0.65 µM; Km (CYP3A4; read-out: Km Plasma, human plasma): 45.8 ± 4.38 µM |
| OC(CCCN1CCC(O)(c2ccc(Cl)cc2)CC1)c1ccc(F)cc1 (centres unmarked) [Reduced haloperidol] | 8e-09 M | 1.3 | 0.24 µM |  |
| CCNCc1cc(Nc2ccnc3cc(Cl)ccc23)ccc1O [Desethylamodiaquine] | 8.2e-07 M | 5.1 | 4.1 µM |  |
| Nc1ccc(S(=O)(=O)Nc2ccnn2-c2ccccc2)cc1 [Sulfaphenazole] |  |  |  | IC50 increased on addition of plasma (CYP2C9 [4]; addition of plasma to human hepatocytes or human liver microsomes): more than 10 fold |
| O=C1C(CCSc2ccccc2)C(=O)N(c2ccccc2)N1c1ccccc1 [Sulfinpyrazone sulfide] |  |  |  | Ki (CYP2C9 [5]): 27 µM |
| CCCCc1oc2ccccc2c1C(=O)c1cc(I)c(OCCNCC)c(I)c1 [N-Desethylamiodarone] |  |  |  | [I] Metabolite (M) (in vivo): 1.5e-06 M |
| COc1ccc2c(c1)[C@]13CCCC[C@@H]1[C@H](C2)N(C)CC3 [dextromethorphan] |  |  |  | Increase in Km on adding plasma (in words, FIG. 6) (CYP2D6 [6]): relatively small increase in Km; Increase in Km on addition of plasma (CYP2D6 [6]): less than six |
| Cc1nc2n(c(=O)c1CCN1CCC(c3noc4cc(F)ccc34)CC1)CCCC2O (centres unmarked) [Paliperidone] | 4.6e-08 M | 1.0 | 16 µM | IPM/IPP (CYP3A [7]): 2.0; Ki (CYP3A [8]): 80 µM |
| CC(C)c1c(C(=O)Nc2ccccc2)c(-c2ccccc2)c(-c2ccc(F)cc2)n1CC[C@@H]1C[C@@H](O)CC(=O)O1 [Atorvastatin lactone] | 3e-09 M |  |  | IPM/IPP (CYP3A [7]): 5.5; Ki (CYP3A [8]): 0.9 µM |
| C[C@H](NC(C)(C)C)[C@@H](O)c1cccc(Cl)c1 [Threobupropion] | 1.9e-06 M | 24.8 | 5.4 µM |  |
| O=C(O)Cc1ccccc1Nc1c(Cl)cccc1Cl [Diclofenac] |  |  |  | Increase in Km on adding plasma (in words, FIG. 6) (CYP2C9 [9]): relatively large increase in Km; Increase in Km on addition of plasma (CYP2C9 [9]): more than 40 fold |
| Clc1ccc(COC(Cn2ccnc2)c2ccc(Cl)cc2Cl)c(Cl)c1 (centres unmarked) [Miconazole] |  |  |  | IC50 (CYP2C9 [4]): 2.02 ± 0.37 µM; IC50 (CYP2C9 [4]; hepatocytes): 2.12 ± 0.37 µM |
| NCCC(Oc1ccc(C(F)(F)F)cc1)c1ccccc1 (centres unmarked) [Norfluoxetine] |  |  | 0.2 µM | Plasma half-life [3]: about 16 days |
